Measured values reported in publication PMC11995724, “Antibiotic target discovery by integrated phenotypic and activity-based profiling of electrophilic fragments” (Cell chemical biology, 2025).

Test: in vitro
Conditions: human, hek293t cells

Compound	viability at 48 h, 25 µM
N#CC(=Cc1cccc(O)c1)C(=O)Nc1ccccc1C(F)(F)F [9-A20, 2-cyano-3-(3-hydroxyphenyl)-N-[2-(trifluoromethyl)phenyl]prop-2-enamide]	109%
Cc1cc(C)cc(-c2cc(NC(=O)CCl)n(-c3ccccc3)n2)c1 [4-K04, 2-chloro-N-[3-(3,5-dimethylphenyl)-1-phenyl-1H-pyrazol-5-yl]acetamide]	-0.323%
Cc1ccc(NC(=O)C(C)Cl)cc1 (stereo not drawn) [4-J15, 2-chloro-N-(4-methylphenyl)propanamide]	92.1%
C=CC(=O)N1CCC(C(=O)NCc2ccoc2C)CC1 [1-E14, N-[(2-methylfuran-3-yl)methyl]-1-(prop-2-enoyl)piperidine-4-carboxamide]	85.4%
N#Cc1nc(-c2ccco2)oc1N1CCN(C(=O)CCl)CC1 [4-B22, 5-[4-(2-chloroacetyl)piperazin-1-yl]-2-(furan-2-yl)-1,3-oxazole-4-carbonitrile]	0.503%
O=C(CCl)N(CC=Cc1ccccc1)c1ccc2c(c1)OCCO2 [4-G19, 2-chloro-N-(2,3-dihydro-1,4-benzodioxin-6-yl)-N-(3-phenylprop-2-en-1-yl)acetamide]	0.292%
O=C(CCl)c1cscn1 [10-L08, 2-chloro-1-(1,3-thiazol-4-yl)ethan-1-one]	59.2%
O=C(CCl)Nc1cccc(Oc2ccccc2)c1 [4-P19, 2-chloro-N-(3-phenoxyphenyl)acetamide]	0.14%
C=CC(=O)N[C@H]1CCO[C@@H]1c1ccnn1C(C)C (racemic) [3-K05, rac-N-[(2R,3R)-2-[1-(propan-2-yl)-1H-pyrazol-5-yl]oxolan-3-yl]prop-2-enamide]	52.7%
CCC(=O)NC1CCN(C(=O)CCl)C1 (stereo not drawn) [5-G04, N-[1-(2-chloroacetyl)pyrrolidin-3-yl]propanamide]	10.3%
CC(Cl)C(=O)Nc1cc2c(cc1Cl)C(=O)c1ccccc1C2=O (stereo not drawn) [4-I12, 2-chloro-N-(3-chloro-9,10-dioxo-9,10-dihydroanthracen-2-yl)propanamide]	79.4%
C=CC(=O)N1CCN(c2nc(CC)ns2)CC1 [1-J20, 1-[4-(3-ethyl-1,2,4-thiadiazol-5-yl)piperazin-1-yl]prop-2-en-1-one]	46.2%
CC(=O)Nc1ccc(NC(=O)N2CCSSCC2)cc1 [10-J11, N-(4-acetamidophenyl)-1,2,5-dithiazepane-5-carboxamide]	120%
C=CC(=O)N1CCOC(Cn2nc(C)cc2C)C1 (stereo not drawn) [3-C13, 1-{2-[(3,5-dimethyl-1H-pyrazol-1-yl)methyl]morpholin-4-yl}prop-2-en-1-one]	40.5%
N#CC(=Cc1ccc(F)c([N+](=O)[O-])c1)C(=O)Nc1ccc(F)cc1 [8-D04, 2-cyano-3-(4-fluoro-3-nitrophenyl)-N-(4-fluorophenyl)prop-2-enamide]	1.12%
C=CC(=O)Nc1cccc(-c2cn(C)nn2)c1 [1-K14, N-[3-(1-methyl-1H-1,2,3-triazol-4-yl)phenyl]prop-2-enamide]	82.8%
CCCCNC(=O)C(C#N)=Cc1ccc(F)cc1 [9-P13, N-butyl-2-cyano-3-(4-fluorophenyl)prop-2-enamide]	124%
C=CC(=O)N1CCCC(c2nc(C)no2)C1 (stereo not drawn) [2-K12, 1-[3-(3-methyl-1,2,4-oxadiazol-5-yl)piperidin-1-yl]prop-2-en-1-one]	101%
CC(Cl)C(=O)NCc1ccccc1S(=O)(=O)N1CCOCC1 (stereo not drawn) [7-K15, 2-chloro-N-{[2-(morpholine-4-sulfonyl)phenyl]methyl}propanamide]	86%
C=CC(=O)Nc1ccc(N(C)S(=O)(=O)CC)cc1 [3-H06, N-[4-(N-methylethanesulfonamido)phenyl]prop-2-enamide]	87.8%
COc1cc2c(cc1OC)C(c1ccccc1)N(C(=O)CCl)CC2 (stereo not drawn) [6-K12, 2-chloro-1-(6,7-dimethoxy-1-phenyl-1,2,3,4-tetrahydroisoquinolin-2-yl)ethan-1-one]	0.105%
